Data reported in US20250297035A1, “A PEPTIDE AND THE SELECTION METHOD THEREOF” (THE HONG KONG UNIVERSITY OF SCIENCE AND TECHNOLOGY, priority 2021, published 2025).
Read-outs that look alike come from different tables or passages of the source. Where a SMILES comes first, the peptide text is derived from it. [ ]: non-standard residue; d: D form. The star is where a group is joined. Fmoc = O=C(OCC1c2ccccc2-c2ccccc21)*; 12Ado = NCCCCCCCCCCCC(=O)O; StBu = CC(C)(C)S*

Assay: MTT assay, cytotoxicity of the peptide
Type: cell-based
Details: read-out: cell viability
Source text: MTT assay was applied to evaluate the cytotoxicity effect of the peptide on HeLa, MCF-7, SK-N-MC, HEK293 and RAW264.7 cells (FIG. 12).

Measured: viability

CC(C)[C@H](NC(=O)[C@H](CCCCN)NC(=O)[C@H](CCCCN)NC(=O)[C@H](CCCCN)NC(=O)[C@H](CCCCN)NC(=O)[C@H](CCCCN)NC(=O)[C@@H]1CCCN1C(=O)OCC1c2ccccc2-c2ccccc21)C(=O)NCC(=O)N[C@@H](Cc1c[nH]cn1)C(=O)N[C@@H](Cc1c[nH]cn1)C(=O)N[C@@H](Cc1c[nH]cn1)C(=O)N[C@@H](Cc1c[nH]cn1)C(=O)NCCCCCCCCCCCC(=O)N[C@@H](CSSC(C)(C)C)C(=O)N[C@@H](Cc1c[nH]cn1)C(=O)N[C@@H](Cc1c[nH]cn1)C(=O)N[C@@H](CSSC(C)(C)C)C(=O)N[C@@H](CSSC(C)(C)C)C(=O)N[C@@H](Cc1c[nH]cn1)C(=O)N[C@@H](Cc1c[nH]cn1)C(=O)N[C@@H](CSSC(C)(C)C)C(=O)NCC(=O)N[C@@H](CO)C(=O)N1CCC[C@H]1C(=O)N[C@@H](Cc1c[nH]cn1)C(=O)N[C@@H](Cc1c[nH]cn1)C(=O)N[C@@H](CC(=O)O)C(=O)O [peptide_13, Fmoc-PKKKKKVG-HHHH (SEQ ID NO: 31)-C12-CstBuHHCstBuCstBuHHCstBuGSPHHD (SEQ ID NO: 39)] (Fmoc-PKKKKKVGHHHH[12Ado]C(StBu)HHC(StBu)C(StBu)HHC(StBu)GSPHHD-OH; C-terminus assumed)
> 80%: human, HEK293 cells, peptide concentration up to 4 μM | human, HeLa cells, peptide concentration up to 8 μM | human, MCF-7 cells, peptide concentration up to 8 μM | human, SK-N-MC cells, peptide concentration up to 4 μM | mouse, RAW264.7 cells, peptide concentration up to 4 μM
